Results: paper PMC6893741, “Docosahexaenoic Acid Inhibits PTP1B Phosphatase and the Viability of MCF-7 Breast Cancer Cells” (Nutrients, 2019)

Biological target: T1, Protein tyrosine phosphatase 1B (PTP1B) (Homo sapiens, UniProt P18031)
T1 construct: gene PTPN1; recombinant PTP1B
T1 sequence (P18031 1-435): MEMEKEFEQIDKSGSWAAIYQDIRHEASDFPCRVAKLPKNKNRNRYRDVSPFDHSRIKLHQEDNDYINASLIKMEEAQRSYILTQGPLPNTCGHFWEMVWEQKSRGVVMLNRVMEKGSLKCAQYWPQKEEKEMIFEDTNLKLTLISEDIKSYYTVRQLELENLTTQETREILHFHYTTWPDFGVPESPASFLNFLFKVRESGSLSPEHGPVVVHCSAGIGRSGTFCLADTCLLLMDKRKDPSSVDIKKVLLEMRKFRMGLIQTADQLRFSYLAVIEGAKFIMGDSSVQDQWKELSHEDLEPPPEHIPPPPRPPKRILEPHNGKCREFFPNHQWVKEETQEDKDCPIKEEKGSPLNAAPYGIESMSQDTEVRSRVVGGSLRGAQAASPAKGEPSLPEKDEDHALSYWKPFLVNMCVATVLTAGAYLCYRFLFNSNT
Experiment: recombinant PTP1B activity assay with pNPP, absorbance at […] nm, […] min incubation
Type: biochemical

Q: Which IC50 does the source give for `CC/C=C\C/C=C\C/C=C\C/C=C\C/C=C\C/C=C\CCC(=O)O` [DHA, docosahexaenoic acid] here?
A: Its IC50 is 174 ± 25.5 µM.
